Data as given in patent US6500819B2, “Bicyclolactam compounds, use thereof and intermediates for preparing thereof” (Taiho Pharmaceutical Company Limited, priority 1994, dated 2002).

Key:
[1] = system: ddY mice; test: Muscle relaxant effect (traction method), second part
Experimental: (§1) Muscle Relaxant Effect (Traction Method)
(§2) Compound 1′a-1, the comparison compound, diazepam or buspirone was suspended in a 0.5% sodium carboxymethyl cellulose solution, and the suspension was orally administered to 3- to 4-week-old male ddY mice (in groups of 5) in a volume of 10 ml/kg one hour before the start of experiment.
(§3) With reference to a method described in Japan. J. Pharmacol., 49. 337˜349(1989), the foreleg of the mouse was hung on a horizontal wire, having a diameter of 1.2 mm and fixed at a level of 30 cm, three times consecutively. […] Thus, ED5 0 was determined for evaluation. […] Diazepam and buspirone were 2.2 mg/kg and 427.8 mg/kg, respectively, in ED5 0.

[2] = system: ddY mice; test: Sedative effect (spontaneous locomotor activity), second part
Experimental: Sedative Effect (Spontaneous locomotor activity)
as §2
The test was conducted with reference to a method described in “Evaluation of Medicinal Efficacies (1), Pharmacological Test Method (I), Basic Lectures on Development of Pharmaceuticals,” 50˜54(1971). More specifically, the group of mice were given the test drug and thereafter measured the amount of spontaneous locomotor activity for 10 minutes per mouse using Animex MK-110 (Muromachi Kikai Co., Ltd.).

[3] = system: ddY mice; test: Effect on central nervous system depressant (ethanol enhancing method), second part
Experimental: (§4) Effect on central nervous system depressant (Ethanol enhancing method)
(§5) Compound 1′a-1, the comparison compound, diazepam or buspirone was suspended in a 0.5% sodium carboxymethyl cellulose solution, and the suspension was orally administered to 3- to 4-week-old male ddY mice (in groups of 6) in a volume of 10 ml/kg one hour before the start of experiment.
(§6) The test was conducted with reference to a method described in Japan. J. Pharmacol., 49, 337˜349(1989). More specifically, the group of mice were intraperitoneally given 25% ethanol at a dose of 20 ml/kg and checked for the time interval between loss and recovery of the righting reflex.

[4] = system: ddY mice; test: Anticonvulsant effect (pentylenetetrazol-induced convulsion method), second part; assay type: in vivo; details: for Anticonvulsant effect (in words): oral, dose of 300 mg/kg; for ED50: Mus musculus, 1 h, read-out: ED50, anticonvulsant effect (no death within 60 minutes)
Experimental: Anticonvulsant Effect (Pentylenetetrazol-induced Convulsion Method)
Compound 1′a-1, the comparison compound, diazepam or j buspirone was suspended, in a 0.5% sodium carboxymethyl cellulose solution, and the suspension was orally administered to 3- to 4-week-old maple ddY mice (in groups of 6) in a volume of 10 ml/kg one hour before the start of experiment.
The test was conducted with reference to a method described in “Evaluation of Medicinal Efficacies (1), Pharmacological Test Method (I), Basic Lectures on Development of Pharmaceuticals,” 167˜172(1971).

[5] = system: ddY mice; test: Acute toxicity test (number of deaths), second part; assay type: in vivo; details: 6 mice, observed for 3 days
[6] = system: Wistar rats; test: Anticonflict test (first part, Test Example 1); assay type: in vivo; details: for Frequency of water drinking behavior: 1 h before test, value relative to control = 100; for Anxiolytic effect in the anticonflict test (in words): oral, compounds at doses of 0.001 to 1.0 mg/kg
Experimental: (§7) Wistar rats (males weighing 140 to 160 g) were used for experiment in groups of 11 to 14.
The test compound, diazepam or buspirone was suspended in a 0.5 % sodiumn carboxymethyl cellulose solution, and the suspension was orally given to the animal in a volume of 5 mnl/kg one hour before the start of experiment.
With reference to a method described in “Process in Anxiolytics and Antidepresants,” ediled by Showa Ueki and Tatsuo Furukawa, Ishiyaku Shuppansha, 56-59 (1981) , the agents were tested using experimental boxes having a grid floor and a metal drinking tube in the floor. No water was supplied to the rats for 48 hours before the experiment. Upon lapse of first 24 hours, each group of rats were placed into the experimental box, permitted access to water for 30 seconds and caused to recognize the metal drinking tube. Upon lapse of further 24 hours with access to water prevented, the rats were placed into the box again and permitted access to water on condition that an electric current was passed between the metal drinking tube and the grid to give an electroshock for every 20 times of water drinking behavior to measure the frequency of water drinking behavior for 3 minutes.
The frequency is expessed by a value relative to the frequency of the control which is taken as 100.

[7] = system: Wistar rats; test: Elevated plus maze test; assay type: in vivo; details: for Ratio of entries into open arm: 1 h before test, relative to control = 100
Experimental: Wistar rats (males weighing 170 to 220 g) were used for experiment in groups of 4 to 9.
The test compound, diazepam or buspirone was suspended in a 0.5 %) sodium carboxymethyl cellulose solution, and the suspension was orally given to the animal in a volume of 5 ml/kg one hour before the start of experiment.
The test was conducted using an experimental device, Model BTA-2, Behavior Analysis System (product of Muromachi Kikai Co., Ltd.) with reference to a method described in Psychopharmacology, 99, 48˜53(1989). […] Each group of rats orally given the test drug were placed in the center square, and the behavior of the animals was recorded for 5 minutes using a behavior analyzer. The ratio of the number of entries into the open arm to the number of entries into all the arms was determined for evaluating the anxiolytic effect.
The ratio of entries into the open arm is expressed by a value relative to the ratio attained by the control which is taken as 100.

[8] = system: Wistar rats; test: Anticonflict test (second part, relieving rate of anxiety); assay type: in vivo; details: oral, dose of 1.0 mg/kg
Experimental: as §7
No water was supplied to the rats for 48 hours before the experiment. Upon lapse of first 24 hours, each group of rats were placed into the experimental box, permitted access to water for 30 seconds and caused to recognize the metal drinking tube. Upon lapse of further 24 hours with access to water prevented, the rats were placed into the box again and permitted access to water on condition that an electric current was passed between the metal drinking tube and the grid to give an electroshock for every 20 times of water drinking behavior to measure the frequency of water drinking behavior for 3 minutes. Anxiolytic effect was evaluated as relieving rate of anxiety as calculated by the following equation.

[9] = Acute toxicity test (LD50), first part; assay type: in vivo; details: mouse, in vivo; oral, male ddY mice, observed for 3 days
[10] = system: ddY mice; test: Muscle relaxant effect (traction method), first part; details: mouse, in vivo, po, 300 mg/kg
Experimental: as §1
(§8) Compound 3, Compound 13, diazepam or buspirone was suspended in a 0.5 % sodium carboxymethyl cellulose solution, and the suspension was orally administered to 3- to 4-week-old male ddY mice (in groups of 5) in a volume of 10 ml/kg one hour before the start of experiment.
as §3

[11] = system: ddY mice; test: Sedative effect (spontaneous locomotor activity), first part; details: mouse, in vivo, po, 300 mg/kg
Experimental: (§9) Sedative Effect (Spontaneous Locomotor Activity)
as §8
(§10) The test was conducted with reference to a method described in “Evaluation of Medicinal Efficacies (1), Pharmacological Test Method (1), Basic Lectures on Development of Pharmaceuticals,” 50˜54(1971). More specifically, the group of mice were given the test drug and thereafter measured the amount of spontaneous locomotor activity for 10 minutes per mouse rising Animex MK-110 (product of Muromachi Kikai Co., Ltd.).

[12] = in vivo; details: male, ddY, mouse, in vivo
Experimental: (§11) Effect On Central Nervous System Depressant
a. Pentobarbital Anesthetic Method
Compound 3, Compound 13, diazepam or buspirone was suspended in a 0.5 % sodium carboxymethyl cellulose solution, and the suspension was orally administered to 3- to 4-week-old male ddY mice (in groups of 5 to 10) in a volume of 10 ml/kg one hour before the start of experiment.
The test was conducted with reference to a method described in “Evaluation of Medicinal Efficacies (1), Pharmacological Test Method (1), Basic lectures on Development of Pharmaceuticals,” 144˜145(1971). More specifically, the group of mice were intraperitoneally given pentobarbital at a dose of 40 mg/kg and checked for sleeping time.

[13] = system: ddY mice; test: Effect on central nervous system depressant: ethanol enhancing method, first part; details: mouse, in vivo, po, 300 mg/kg
Experimental: as §11
(§12) b. Ethanol Enhancing Method
(§13) Compound 3, Compound 13, diazepam or buspirone was suspended in a 0.5 % sodium carboxymethyl cellulose solution, and the suspension was orally administered to 3- to 4-week-old male ddY mice (in groups of 6) in a volume of 10 ml/kg one hour before the start of experiment.
(§14) The test was conducted with reference to a method described in Japan. J. Pharmacol., 49, 337˜349(1989). More specifically, the group of mice were intraperitoneally given 25 % ethanol at a dose of 20 ml/kg and checked for the time interval between loss and recovery of the righting reflex.

[14] = system: ddY mice; test: Anticonvulsant effect (pentylenetetrazol-induced convulsion method), first part; assay type: in vivo; details: oral, dose of 300 mg/kg
Experimental: Anticonvulsant Effect (Pentylenetetrazol-Induced Convulsion Method)
as §13
The test was conducted with reference to a method described in “Evaluation of Medicinal Efficacies (1), Pharmacological Test Method (1), Basic lectures on Development of Pharmaceuticals,” 167˜172(1971).

[15] = Muscle relaxant effect (traction method), first part; details: male, ddY, mouse, in vivo, po
Experimental: as §1, §8, §3

[16] = Sedative effect (spontaneous locomotor activity), first part; details: male, ddY, mouse, in vivo, po
Experimental: as §9, §8, §10

[17] = Effect on central nervous system depressant: ethanol enhancing method, first part; details: male, ddY, mouse, in vivo
Experimental: as §11, §12, §13, §14

[18] = Muscle relaxant effect (traction method), second part; details: male, ddY, mouse, in vivo, po
Experimental: as §1, §2, §3

[19] = Effect on central nervous system depressant (ethanol enhancing method), second part; details: male, ddY, mouse, in vivo
Experimental: as §4, §5, §6

COc1ccc(C(=O)N2C(=O)CC[C@H]3[C@H](O)CC[C@H]32)cc1 (racemic) [Compound 1′a-1, (1RS, 6RS, 7RS)-7-hydroxy-2-(4-methoxybenzoyl)-2-azabicyclo-[4.3.0]nonan-3-one]
Muscle relaxant effect (in words) ([1]; mouse, in vivo, po, 300 mg/kg): no muscle relaxant effect
Sedative effect (in words) ([2]; mouse, in vivo, po, 300 mg/kg): no sedative effect
Ethanol enhancing effect (in words) ([3]; mouse, in vivo, po, 300 mg/kg): no ethanol enhancing effect
Anticonvulsant effect (in words) [4]: no anticonvulsant effect
Number of death ([5]; dose 2000 mg/kg oral): 0
Number of death ([5]; dose 3000 mg/kg oral): 2

COc1ccc(C(=O)N2C(=O)CC[C@@H]3[C@H]2CC[C@H]3OCc2ccccc2)cc1 (racemic) [Compound 4a-1, (1RS, 6RS, 7RS)-7-benzyloxy-2-(4-methoxybenzoyl)-2-azabicyclo[4.3.0]nonan-3-one]
melting point: 109.5 °C

O=C1CC2(CCCC2)CC(=O)N1CCCCN1CCN(c2ncccn2)CC1 [Buspirone, buspirone, reference compound]
Frequency of water drinking behavior ([6]; dose 1.0 mg/kg oral): 103%
Anxiolytic effect in the anticonflict test (in words) [6]: almost ineffective
Ratio of entries into open arm ([7]; dose 1.0 oral): 98
Ratio of entries into open arm ([7]; dose 10.0 oral): 93
Anxiolytic effect in the anticonflict test (in words) [8]: almost ineffective
ED6O, sedative effect (spontaneous locomotor activity up to 50% of control) ([2]; male, ddY, mouse, in vivo, po, 1 h): 149.7 mg/kg
ED50 [4]: ≥ 300 mg/kg

O=C1CC2CCCCC2N1 (stereo not drawn) [Comparison Compound, 2-azabicyclo[3.4.0]nonane-2-one]
Muscle relaxant effect (in words) ([1]; oral, dose of 300 mg/kg): no muscle relaxant effect
Sedative effect (in words) ([2]; oral, dose of 300 mg/kg): no sedative effect
Ethanol enhancing effect (in words) ([3]; oral, dose of 300 mg/kg): no ethanol enhancing effect
Anticonvulsant effect (in words) [4]: no anticonvulsant effect

COc1ccc(C(=O)N2C(=O)CCC3CCCCC32)cc1 (stereo not drawn) [Compound 1, 2-(4-methoxybenzoyl)-2-azabicyclo[4.4.0)decane-3-one]
Frequency of water drinking behavior ([6]; dose 0.01 mg/kg oral): 138%
Frequency of water drinking behavior ([6]; dose 0.1 mg/kg oral): 140%
Frequency of water drinking behavior ([6]; dose 1.0 mg/kg oral): 122%
Anxiolytic effect in the anticonflict test (in words) [6]: increase in the frequency of water drinking behavior
LD50 at 3 days [9]: > 2000 mg/kg

COc1ccc(C(=O)N2C(=O)CCC3CCCC32)cc1 (stereo not drawn) [Compound 3, 2-(4-methoxybenzoyl)-2-azabicyclo[4.3.0]nonane-3-one]
Frequency of water drinking behavior ([6]; dose 0.001 mg/kg oral): 126%
Frequency of water drinking behavior ([6]; dose 0.01 mg/kg oral): 162%
Frequency of water drinking behavior ([6]; dose 0.1 mg/kg oral): 164%
Frequency of water drinking behavior ([6]; dose 1.0 mg/kg oral): 166%
Anxiolytic effect in the anticonflict test (in words) [6]: increase in the frequency of water drinking behavior
Ratio of entries into open arm ([7]; dose 0.001 oral): 195
Ratio of entries into open arm ([7]; dose 0.01 oral): 219
Ratio of entries into open arm ([7]; dose 0.1 oral): 248
Anxiolytic effect in the elevated plus maze (in words) ([7]; oral, dose of 0.001 mg/kg or greater): increase in the number of entries into the open arm
Muscle relaxant effect (in words) [10]: no muscle relaxant effect
Sedative effect (in words) [11]: no sedative effect
ED50 at 1 h [12]: ≥ 300 mg/kg
Ethanol enhancing effect (in words) [13]: no ethanol enhancing effect
Anticonvulsant effect (in words) [14]: no anticonvtilsant effect
LD50 at 3 days [9]: > 2000 mg/kg

COc1ccc(C(=O)N2C(=O)CC3CCCCC32)cc1 (stereo not drawn) [Compound 11, 7-(4-methoxybenzoyl)-7-azabicyclo[4.3.0]nonane-8-one]
Frequency of water drinking behavior ([6]; dose 1.0 mg/kg oral): 133%
Anxiolytic effect in the anticonflict test (in words) [6]: increase in the frequency of water drinking behavior
LD50 at 3 days [9]: > 2000 mg/kg

CN1C(=O)CN=C(c2ccccc2)c2cc(Cl)ccc21 [Diazepam, diazepam, reference compound]
Frequency of water drinking behavior ([6]; dose 1.0 mg/kg oral): 96%
Anxiolytic effect in the anticonflict test (in words) [6]: almost ineffective
Ratio of entries into open arm ([7]; dose 1.0 oral): 103
Ratio of entries into open arm ([7]; dose 10.0 oral): 144
ED50 at 1 h [15]: 2.2 mg/kg
ED50 at 1 h [16]: 1.7 mg/kg
ED50 at 1 h [12]: 0.53 mg/kg
ED50 at 1 h [17]: 0.48 mg/kg
Anxiolytic effect in the anticonflict test (in words) [8]: almost ineffective
ED50 at 1 h [18]: 2.2 mg/kg
ED6O, sedative effect (spontaneous locomotor activity up to 50% of control) ([2]; oral, mice, 1 h before test): 1.7 mg/kg
ED50 at 1 h [19]: 0.48 mg/kg
ED50 [4]: 0.35 mg/kg
